Experimental data taken from ChEMBL document CHEMBL6121031, “Optimizing Linezolid: Transforming It into a Selective MAO-B Inhibitor via a Toxicity-to-Activity Optimization Approach” (ACS Med Chem Lett, 2025).
pIC50: −log10 of the molar value.

Columns and labels:
[1] = molecular target: T1, Amine oxidase [flavin-containing] A (Homo sapiens, UniProt P21397); experiment: Inhibition of recombinant human MAO-A using kynuramine as substrate incubated for 15 mins by absorbance based assay
T1 sequence (P21397 whole entry): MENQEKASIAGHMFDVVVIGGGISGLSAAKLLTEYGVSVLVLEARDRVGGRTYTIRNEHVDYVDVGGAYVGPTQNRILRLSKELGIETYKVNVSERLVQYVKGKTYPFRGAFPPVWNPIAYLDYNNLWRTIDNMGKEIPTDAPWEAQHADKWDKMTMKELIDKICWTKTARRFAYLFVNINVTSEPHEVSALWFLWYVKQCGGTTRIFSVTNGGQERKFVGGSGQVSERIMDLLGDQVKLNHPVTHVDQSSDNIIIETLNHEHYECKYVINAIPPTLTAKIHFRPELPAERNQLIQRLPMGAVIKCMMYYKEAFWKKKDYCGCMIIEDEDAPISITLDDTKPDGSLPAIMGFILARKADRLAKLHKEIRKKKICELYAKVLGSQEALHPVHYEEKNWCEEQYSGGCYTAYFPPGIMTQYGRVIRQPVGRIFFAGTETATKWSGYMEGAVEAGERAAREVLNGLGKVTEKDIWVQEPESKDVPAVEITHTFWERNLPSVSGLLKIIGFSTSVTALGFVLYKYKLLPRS

[2] = molecular target: T2, Amine oxidase [flavin-containing] B (Homo sapiens, UniProt P27338)
T2 sequence (P27338 whole entry): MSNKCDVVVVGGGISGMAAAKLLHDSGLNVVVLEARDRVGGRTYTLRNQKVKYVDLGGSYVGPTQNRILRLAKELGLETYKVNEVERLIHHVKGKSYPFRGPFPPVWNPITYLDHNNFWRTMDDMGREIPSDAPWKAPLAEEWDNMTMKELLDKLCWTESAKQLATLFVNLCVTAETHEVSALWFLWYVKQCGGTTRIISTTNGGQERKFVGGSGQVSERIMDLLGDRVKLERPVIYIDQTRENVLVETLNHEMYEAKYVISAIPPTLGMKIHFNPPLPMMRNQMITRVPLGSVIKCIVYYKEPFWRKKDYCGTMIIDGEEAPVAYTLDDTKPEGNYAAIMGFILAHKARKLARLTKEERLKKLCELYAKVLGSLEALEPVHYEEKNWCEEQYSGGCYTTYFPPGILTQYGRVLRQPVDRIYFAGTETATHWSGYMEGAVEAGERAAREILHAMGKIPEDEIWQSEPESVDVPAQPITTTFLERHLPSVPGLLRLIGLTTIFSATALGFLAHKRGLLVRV

[3] = tested on: Mycobacterium tuberculosis; experiment: Antimycobacterial activity against Mycobacterium tuberculosis H37Rv measured after 7 days by MABA assay; type: functional; details: 168 h, time 7 day
[4] = molecular target: T2, Amine oxidase [flavin-containing] B; experiment: Reversible competitive inhibition of human MAO-B assessed as residual activity before dialysis at 0.068 uM incubated for 30 mins relative to control; details: 0.5 h, read-out: Activity
[5] = molecular target: T2, Amine oxidase [flavin-containing] B; experiment: Reversible competitive inhibition of human MAO-B assessed as residual activity after dialysis at 0.068 uM incubated for 30 mins relative to control; details: 0.5 h, read-out: Activity
[6] = molecular target: T2, Amine oxidase [flavin-containing] B; experiment: Potency index, ratio of Pargyline IC50 to test compound IC50 for inhibition of recombinant human MAO-B using benzylamine as substrate incubated for 15 mins by absorbance based assay; details: 0.25 h
[7] = molecular target: T2, Amine oxidase [flavin-containing] B; experiment: Potency index, ratio of Clorgyline IC50 to test compound IC50 for inhibition of recombinant human MAO-B using benzylamine as substrate incubated for 15 mins by absorbance based assay; details: 0.25 h
[8] = Cytotoxicity against human THP-1 cells incubated for 3 days by Cell Titer-Glo Luminescent Cell Viability Assay; type: toxicity, cell-based
[9] = molecular target: T2, Amine oxidase [flavin-containing] B; details: 0.5 h

CC(=O)Nc1nnc(-c2ccc(N3CCOCC3)c(F)c2)s1
pIC50 [1]: < 4.40
pIC50 [2]: 5.99
MIC [3]: > 25 µg/mL

CCCCS(=O)(=O)Nc1nnc(-c2ccc(N3CCSCC3)c(F)c2)s1
pIC50 [1]: 4.67
pIC50 [2]: 7.30
MIC [3]: > 25 µg/mL

O=S(=O)(Nc1nnc(-c2ccc(N3CCSCC3)c(F)c2)s1)C1CC1
pIC50 [1]: 4.59
pIC50 [2]: 7.30
MIC [3]: > 25 µg/mL

CCS(=O)(=O)Nc1nnc(-c2ccc(N3CCSCC3)c(F)c2)s1
pIC50 [1]: 4.80
pIC50 [2]: 7.52
activity at 0.068 µM [4]: 35%
activity at 0.068 µM [5]: 73.5%
Ratio IC50 [6]: 4
Ratio IC50 [7]: 54
MIC [3]: > 25 µg/mL
IC50 at 3 days [8]: > 300 µg/mL

CS(=O)(=O)Nc1nnc(-c2ccc(N3CCSCC3)c(F)c2)s1
pIC50 [1]: 4.73
pIC50 [2]: 7.40
MIC [3]: > 25 µg/mL

C#CCN(C)Cc1ccccc1 [PARGYLINE]
activity at 0.028 µM [9]: 34%

CC(=O)Nc1nnc(-c2ccc(N3CCCC3)c(F)c2)s1
pIC50 [1]: 4.88
pIC50 [2]: 6.77
MIC [3]: > 25 µg/mL

O=C(Nc1nnc(-c2ccc(N3CCSCC3)c(F)c2)s1)C1CC1
pIC50 [1]: < 4.40
pIC50 [2]: 7.00
MIC [3]: > 25 µg/mL

CC(=O)Nc1nnc(-c2ccc(N3CCSCC3)c(F)c2)s1
pIC50 [1]: 5.05
pIC50 [2]: 7.15
MIC [3]: > 25 µg/mL
IC50 at 3 days [8]: > 300 µg/mL
